Measured values as given in patent US9012651B2, “TRPV3 modulators” (AbbVie Inc., priority 2011, dated 2015).

What follows are compounds tested against human TRPV3 receptors (Homo sapiens (Human), UniProt Q8NET8) (assay: Calcium flux assay (FLIPR TETRA), inhibition of the 2-APB response). Conditions: recombinant HEK293 cells stably expressing TRPV3, Calcium-4 dye, 2-APB at its EC80.
Assay type: cell-based
How it was run: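 Responses are given relative to the maximal 2-APB signal in the absence of compound, using peak fluorescence over baseline. Measured by FLIPR Tetra calcium flux in stable human and mouse TRPV3 HEK293 cells after 90-120 min dark dye incubation.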

Sequence of human TRPV3 receptors (Q8NET8 whole entry): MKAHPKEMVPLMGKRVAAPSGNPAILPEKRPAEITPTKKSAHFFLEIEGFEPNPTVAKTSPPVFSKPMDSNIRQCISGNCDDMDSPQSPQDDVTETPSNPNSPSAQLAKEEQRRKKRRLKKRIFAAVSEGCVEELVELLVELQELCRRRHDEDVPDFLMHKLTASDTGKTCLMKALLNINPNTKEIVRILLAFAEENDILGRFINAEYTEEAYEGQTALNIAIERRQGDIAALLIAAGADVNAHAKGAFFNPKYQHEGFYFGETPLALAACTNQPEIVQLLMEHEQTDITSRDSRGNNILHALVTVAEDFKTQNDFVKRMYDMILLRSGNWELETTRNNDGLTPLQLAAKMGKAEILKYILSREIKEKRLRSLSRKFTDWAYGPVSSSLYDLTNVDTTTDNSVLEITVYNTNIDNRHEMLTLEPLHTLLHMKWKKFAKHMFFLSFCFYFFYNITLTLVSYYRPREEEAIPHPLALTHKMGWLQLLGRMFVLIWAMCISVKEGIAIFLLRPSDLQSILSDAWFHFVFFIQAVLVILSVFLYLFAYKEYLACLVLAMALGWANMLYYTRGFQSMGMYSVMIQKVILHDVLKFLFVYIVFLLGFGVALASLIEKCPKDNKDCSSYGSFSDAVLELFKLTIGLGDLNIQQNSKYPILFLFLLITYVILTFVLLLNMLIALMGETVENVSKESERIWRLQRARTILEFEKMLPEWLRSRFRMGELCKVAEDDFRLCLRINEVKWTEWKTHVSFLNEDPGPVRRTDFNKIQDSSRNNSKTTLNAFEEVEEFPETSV

SMILES | IC50 [µM]
COc1ccc(C#Cc2ccc(F)c(CN[C@@H](CO)C(C)C)n2)cc1 [Example 235, (2R)-2-[({3-fluoro-6-[(4-methoxyphenyl)ethynyl]pyridin-2-yl}methyl)amino]-3-methylbutan-1-ol] | 1.11
CC(C)[C@H](CO)NCc1nc(C#CCC2CCCCC2)ccc1F [Example 236, (2R)-2-({[6-(3-cyclohexylprop-1-yn-1-yl)-3-fluoropyridin-2-yl]methyl}amino)-3-methylbutan-1-ol] | 0.98
CC(C)(CO)NCc1cccc(-c2cccc([Si](C)(C)C)c2)n1 [Example 237, 2-methyl-2-[({6-[3-(trimethylsilyl)phenyl]pyridin-2-yl}methyl)amino]propan-1-ol] | 5.75
CC(C)[C@H](CO)NCc1nc(C#Cc2ccc(F)cc2)ccc1F [Example 238, (2R)-2-[({3-fluoro-6-[(4-fluorophenyl)ethynyl]pyridin-2-yl}methyl)amino]-3-methylbutan-1-ol] | 0.29
CC(C)[C@H](CO)NCc1nc(C#Cc2ccc(F)c(F)c2)ccc1F [Example 239, (2R)-2-[({6-[(3,4-difluorophenyl)ethynyl]-3-fluoropyridin-2-yl}methyl)amino]-3-methylbutan-1-ol] | 0.37
CC(C)[C@H](CO)NCc1nc(C#CC2CCCCC2)ccc1F [Example 240, (2R)-2-({[6-(cyclohexylethynyl)-3-fluoropyridin-2-yl]methyl}amino)-3-methylbutan-1-ol] | 0.51
CC(C)[C@H](CO)NCc1nc(C#Cc2ccc(C(C)(C)C)cc2)ccc1F [Example 241, (2R)-2-[({6-[(4-tert-butylphenyl)ethynyl]-3-fluoropyridin-2-yl}methyl)amino]-3-methylbutan-1-ol] | 1.86
Cc1ccc(-c2ccc(F)c(CN[C@@H](CO)C(C)C)n2)s1 [Example 243, (2R)-2-({[3-fluoro-6-(5-methylthiophen-2-yl)pyridin-2-yl]methyl}amino)-3-methylbutan-1-ol] | 0.38
CC(C)[C@H](CO)NCc1nc(-c2cc(F)c(F)c(F)c2)ccc1F [Example 244, (2R)-2-({[3-fluoro-6-(3,4,5-trifluorophenyl)pyridin-2-yl]methyl}amino)-3-methylbutan-1-ol] | 0.16
CC(C)[C@H](CO)NCc1nc(-c2ccc(F)c(F)c2F)ccc1F [Example 245, (2R)-2-({[3-fluoro-6-(2,3,4-trifluorophenyl)pyridin-2-yl]methyl}amino)-3-methylbutan-1-ol] | 0.16
CC(C)[C@H](CO)NCc1nc(-c2cc(F)c(F)cc2F)ccc1F [Example 246, (2R)-2-({[3-fluoro-6-(2,4,5-trifluorophenyl)pyridin-2-yl]methyl}amino)-3-methylbutan-1-ol] | 0.16
CC(C)[C@H](CO)NCc1nc(-c2cc(F)cc(F)c2)ccc1F [Example 247, (2R)-2-({[6-(3,5-difluorophenyl)-3-fluoropyridin-2-yl]methyl}amino)-3-methylbutan-1-ol] | 0.08
CC(C)[C@H](CO)NCc1nc(-c2ccc3c(ccn3C)c2)ccc1F [Example 248, (2R)-2-({[3-fluoro-6-(1-methyl-1H-indol-5-yl)pyridin-2-yl]methyl}amino)-3-methylbutan-1-ol] | 1.44
CC(C)[C@H](CO)NCc1nc(-c2cc3ccccc3n2C)ccc1F [Example 249, (2R)-2-({[3-fluoro-6-(1-methyl-1H-indol-2-yl)pyridin-2-yl]methyl}amino)-3-methylbutan-1-ol] | 0.35
CC(C)[C@H](CO)NCc1nc(-c2cnn(CC3OCCO3)c2)ccc1F [Example 250, (2R)-2-[({6-[1-(1,3-dioxolan-2-ylmethyl)-1H-pyrazol-4-yl]-3-fluoropyridin-2-yl}methyl)amino]-3-methylbutan-1-ol] | > 20
CC(C)[C@H](CO)NCc1nc(-c2ccoc2)ccc1F [Example 251, (2R)-2-({[3-fluoro-6-(furan-3-yl)pyridin-2-yl]methyl}amino)-3-methylbutan-1-ol] | 0.58
CC(C)[C@H](CO)NCc1nc(-c2ccnn2C)ccc1F [Example 252, (2R)-2-({[3-fluoro-6-(1-methyl-1H-pyrazol-5-yl)pyridin-2-yl]methyl}amino)-3-methylbutan-1-ol] | > 20
Cc1cc(-c2ccc(F)c(CN[C@@H](CO)C(C)C)n2)cnc1N1CCOCC1 [Example 253, (2R)-2-({[5-fluoro-5′-methyl-6′-(morpholin-4-yl)-2,3′-bipyridin-6-yl]methyl}amino)-3-methylbutan-1-ol] | 0.7
CC(C)[C@H](CO)NCc1nc(-c2ccc(N3CCN(C)CC3)nc2)ccc1F [Example 254, (2R)-2-({[5-fluoro-6′-(4-methylpiperazin-1-yl)-2,3′-bipyridin-6-yl]methyl}amino)-3-methylbutan-1-ol] | > 20
CC(C)[C@H](CO)NCc1nc(-c2ccc3sccc3c2)ccc1F [Example 255, (2R)-2-({[6-(1-benzothiophen-5-yl)-3-fluoropyridin-2-yl]methyl}amino)-3-methylbutan-1-ol] | 0.23

SMILES | IC50 [µM]
CC(C)[C@H](CO)NCc1nc(-c2ccc3occc3c2)ccc1F [Example 256, (2R)-2-({[6-(1-benzofuran-5-yl)-3-fluoropyridin-2-yl]methyl}amino)-3-methylbutan-1-ol] | 0.42
CC(C)[C@H](CO)NCc1nc([C@H]2CC[C@@H](C(F)(F)F)CC2)ccc1F [Example 257, (2R)-2-[({3-fluoro-6-[cis-4-(trifluoromethyl)cyclohexyl]pyridin-2-yl}methyl)amino]-3-methylbutan-1-ol] | 0.34
CC(C)[C@H](CO)NCc1nc([C@H]2CC[C@H](C(F)(F)F)CC2)ccc1F [Example 258, (2R)-2-[({3-fluoro-6-[trans-4-(trifluoromethyl)cyclohexyl]pyridin-2-yl}methyl)amino]-3-methylbutan-1-ol] | 0.29
CC(C)[C@H](CO)NCc1nc(-c2cc3c(OCc4ccccc4)cccc3n2C(=O)OC(C)(C)C)ccc1F [Example 259, tert-butyl 4-(benzyloxy)-2-[5-fluoro-6-({[(2R)-1-hydroxy-3-methylbutan-2-yl]amino}methyl)pyridin-2-yl]-1H-indole-1-carboxylate] | 0.52
CC(C)[C@H](CO)NCc1nc(-c2cccc(-n3cccn3)c2)ccc1F [Example 260, (2R)-2-[({3-fluoro-6-[3-(1H-pyrazol-1-yl)phenyl]pyridin-2-yl}methyl)amino]-3-methylbutan-1-ol] | 0.3
CC(C)[C@H](CO)NCc1nc(-c2cnc(N(C)C)nc2)ccc1F [Example 261, (2R)-2-[({6-[2-(dimethylamino)pyrimidin-5-yl]-3-fluoropyridin-2-yl}methyl)amino]-3-methylbutan-1-ol] | 0.75
CCCCOc1ccc(-c2cccc(CN[C@@H](CO)C(C)C)n2)cc1Cl [Example 262, (2R)-2-({[6-(4-butoxy-3-chlorophenyl)pyridin-2-yl]methyl}amino)-3-methylbutan-1-ol] | 0.81
CC(C)[C@H](CO)NCc1cccc(C#Cc2ccc(S(F)(F)(F)(F)F)cc2)n1 [Example 263, (2R)-3-methyl-2-{[(6-{[4-(pentafluoro-λ^6-sulfanyl)phenyl]ethynyl}pyridin-2-yl)methyl]amino}butan-1-ol] | 0.23
CC(C)[C@H](CO)NCc1cccc(C#Cc2ccc(F)cc2)n1 [Example 264, (2R)-2-[({6-[(4-fluorophenyl)ethynyl]pyridin-2-yl}methyl)amino]-3-methylbutan-1-ol] | 0.17
CC(C)[C@H](CO)NCc1cccc(C#Cc2ccc(F)c(F)c2)n1 [Example 265, (2R)-2-[({6-[(3,4-difluorophenyl)ethynyl]pyridin-2-yl}methyl)amino]-3-methylbutan-1-ol] | 0.19
OCC1(NCc2cccc(-c3ccc(F)c(Cl)c3)n2)CCCC1 [Example 266, [1-({[6-(3-chloro-4-fluorophenyl)pyridin-2-yl]methyl}amino)cyclopentyl]methanol] | 0.39
CC(C)[C@H](CO)NCc1cccc(-c2ccc(F)c(C(F)(F)F)c2)n1 [Example 267, (2R)-2-[({6-[4-fluoro-3-(trifluoromethyl)phenyl]pyridin-2-yl}methyl)amino]-3-methylbutan-1-ol] | 0.18
OCC1(NCc2cccc(-c3ccc(F)c(C(F)(F)F)c3)n2)CCCC1 [Example 268, {1-[({6-[4-fluoro-3-(trifluoromethyl)phenyl]pyridin-2-yl}methyl)amino]cyclopentyl}methanol] | 0.42
CC(C)[C@H](CO)NCc1cccc(-c2ccc(F)c(C#N)c2)n1 [Example 269, 2-fluoro-5-[6-({[(2R)-1-hydroxy-3-methylbutan-2-yl]amino}methyl)pyridin-2-yl]benzonitrile] | 0.44
CC(C)[C@H](CO)NCc1cccc(-c2ccc(C(F)(F)F)cc2C(F)(F)F)n1 [Example 270, (2R)-2-[({6-[2,4-bis(trifluoromethyl)phenyl]pyridin-2-yl}methyl)amino]-3-methylbutan-1-ol] | 0.55
OCC1(NCc2cccc(-c3ccc(C(F)(F)F)cc3C(F)(F)F)n2)CCCC1 [Example 271, {1-[({6-[2,4-bis(trifluoromethyl)phenyl]pyridin-2-yl}methyl)amino]cyclopentyl}methano 1] | 0.58
OCC1(NCc2cccc(-c3cc(C(F)(F)F)cc(C(F)(F)F)c3)n2)CCCC1 [Example 272, {1-[({6-[3,5-bis(trifluoromethyl)phenyl]pyridin-2-yl}methyl)amino]cyclopentyl}methano 1] | 0.22
CC(C)[C@H](CO)NCc1nc(-c2cc3ccccc3n2C(=O)OC(C)(C)C)ccc1F [Example 273, tert-butyl 2-[5-fluoro-6-({[(2R)-1-hydroxy-3-methylbutan-2-yl]amino}methyl)pyridin-2-yl]-1H-indole-1-carboxylate] | 0.12
CC(C)[C@H](CO)NCc1nc(-c2cc3ccccc3[nH]2)ccc1F [Example 274, (2R)-2-({[3-fluoro-6-(1H-indol-2-yl)pyridin-2-yl]methyl}amino)-3-methylbutan-1-ol] | 0.26
